Earlier results, collected in patent US8710097B2, “Flavonoid dimers and methods of making and using such” (The Hong Kong Polytechnic University, priority 2006, dated 2014).

Tested on: Ltrmdr1
Conditions: literature; cited from earlier work

## COc1ccc(-c2oc3c(CC=C(C)C)c(O)cc(O)c3c(=O)c2O)cc1 [8-dimethylallylkaempferide]
  modulation (inhibition of Ltrmdr1) compared with cyclosporine A or verapamil: better modulator than either cyclosporine A or verapamil
